Data taken from patent US20260138988A1, “Spiropyrrolidine Derived Antiviral Agents” (Enanta Pharmaceuticals, Inc., priority 2021, published 2026).

biological target: SARS-CoV-2 3CL-protease (Severe acute respiratory syndrome coronavirus 2, UniProt P0DTD1); assay: SARS-CoV-2 3C-Like (3CL) Protease Fluorescence Assay (FRET); assay type: biochemical; conditions: IC50, SARS-CoV-2 3CL-protease 10 nM, test compounds 0-10 μM, duplicate

Structure (SMILES) | IC50 [nM]
C[C@H](NC(=O)C(F)(F)C(F)(F)F)C(=O)N(C)[C@@H](CC1CC1)C(=O)N1C[C@]2(C[C@H]1C#N)C(=O)N(COP(=O)(OC(C)(C)C)OC(C)(C)C)c1ccccc12 [Example 351] | < 100

same assay, conditions: SARS-CoV-2 3CL-protease 10 nM, test compounds 0-10 μM, duplicate, read-out: IC50

Structure (SMILES) | IC50 [nM]
C[C@H](NC(=O)c1cc(F)cc2ccccc12)C(=O)N(C)[C@@H](CC(C)(C)C)C(=O)N1C[C@]2(C[C@H]1C#N)C(=O)Nc1ccccc12 [Example 292] | < 100
COc1ccc(C(=O)N[C@@H](C)C(=O)N(C)[C@@H](CC(C)(C)C)C(=O)N2C[C@]3(C[C@H]2C#N)C(=O)Nc2ccccc23)c2ccccc12 [Example 293] | < 100
C[C@H](NC(=O)c1cccc2ccc(Cl)cc12)C(=O)N(C)[C@@H](CC(C)(C)C)C(=O)N1C[C@]2(C[C@H]1C#N)C(=O)Nc1ccccc12 [Example 294] | < 100
CC(C)C[C@@H](C(=O)N1C[C@]2(C[C@H]1C#N)C(=O)Nc1ccccc12)N(C)C(=O)[C@H](C)NC(=O)c1cccc2cc(F)ccc12 [Example 295] | < 100
CC(C)C[C@@H](C(=O)N1C[C@]2(C[C@H]1C#N)C(=O)Nc1ccccc12)N(C)C(=O)[C@H](C)NC(=O)C1(F)CC1 [Example 296] | < 100
CC(C)C[C@@H](C(=O)N1C[C@]2(C[C@H]1C#N)C(=O)Nc1ccccc12)N(C)C(=O)[C@H](C)NC(=O)C1(C(F)(F)F)CC1 [Example 297] | < 100
CC(C)C[C@@H](C(=O)N1C[C@]2(C[C@H]1C#N)C(=O)Nc1ccccc12)N(C)C(=O)[C@H](C)NC(=O)C12CC3CC(CC(C3)C1)C2 [Example 298] | < 100
CC(N[C@@H](C)C(=O)N(C)[C@@H](CC(C)(C)C)C(=O)N1C[C@]2(C[C@H]1C#N)C(=O)Nc1ccccc12)C(F)(F)F (some centres unmarked) [Example 299] | < 100
C[C@H](NC(=O)c1c(F)c(F)c(F)c(F)c1F)C(=O)N(C)[C@@H](CC(C)(C)C)C(=O)N1C[C@]2(C[C@H]1C#N)C(=O)Nc1ccccc12 [Example 300] | < 100
CC(C)C[C@@H](C(=O)N1C[C@]2(C[C@H]1C#N)C(=O)Nc1ccccc12)N(C)C(=O)[C@H](C)NC(=O)c1c(F)c(F)c(F)c(F)c1F [Example 301] | < 100
C[C@H](NC(c1ccc(F)cc1)C(F)(F)F)C(=O)N(C)[C@@H](CC(C)(C)C)C(=O)N1C[C@]2(C[C@H]1C#N)C(=O)Nc1ccccc12 (some centres unmarked) [Example 302] | < 100
CC(C)(C)C[C@H](NC(=O)[C@H](CC1CC1)NC(=O)c1ccc(C2CCCCC2)cc1)C(=O)N1C[C@]2(C[C@H]1C#N)C(=O)Nc1ccccc12 [Example 303] | < 100
CC(C)(C)C[C@H](NC(=O)[C@H](CC1CC1)NC(=O)c1ccc(C(C)(C)C)cc1)C(=O)N1C[C@]2(C[C@H]1C#N)C(=O)Nc1ccccc12 [Example 304] | < 100
CC(C)(C)C[C@H](NC(=O)[C@H](CC1CC1)NC(=O)c1cc(F)c2nn(C3CC3)cc2c1)C(=O)N1C[C@]2(C[C@H]1C#N)C(=O)Nc1ccccc12 [Example 305] | < 100
CC(C)(C)C[C@H](NC(=O)[C@H](CC1CC1)NC(=O)c1cnn(-c2ccc(C(F)(F)F)cc2)c1)C(=O)N1C[C@]2(C[C@H]1C#N)C(=O)Nc1ccccc12 [Example 306] | < 100
C[C@@H](NC(=O)OCc1ccccc1)C(=O)N(C)[C@@H](CC(C)(C)C)C(=O)N1C[C@]2(C[C@H]1C#N)C(=O)Nc1ccccc12 [Example 307] | < 100
C[C@H](NC(=O)C(F)(F)c1ccc(F)cc1)C(=O)N(C)[C@@H](CC(C)(C)C)C(=O)N1C[C@]2(C[C@H]1C#N)C(=O)Nc1ccccc12 [Example 308] | < 100
C[C@H](NC(=O)C12CC(C)(C1)C2)C(=O)N(C)[C@@H](CC(C)(C)C)C(=O)N1C[C@]2(C[C@H]1C#N)C(=O)Nc1ccccc12 [Example 309] | < 100
C[C@H](NC(=O)C12CC3CC(CC(C3)C1)C2)C(=O)N(C)[C@@H](CC(C)(C)C)C(=O)N1C[C@]2(C[C@H]1C#N)C(=O)Nc1ccccc12 [Example 310] | < 100
CC(C)(C)C[C@H](NC(=O)[C@H](CC1CC1)NC(=O)OC1CC1)C(=O)N1C[C@]2(C[C@H]1C#N)C(=O)Nc1ccccc12 [Example 311] | < 100
CC(C)(C)C[C@H](NC(=O)[C@H](CC1CC1)NC(=O)c1cc(F)c(F)c(F)c1)C(=O)N1C[C@]2(C[C@H]1C#N)C(=O)Nc1ccccc12 [Example 312] | < 100
CC(C)(C)C[C@H](NC(=O)[C@H](CC1CC1)NS(=O)(=O)c1ccc(F)cc1)C(=O)N1C[C@]2(C[C@H]1C#N)C(=O)Nc1ccccc12 [Example 313] | < 100
CC(C)(C)C[C@H](NC(=O)[C@H](CC1CC1)NS(=O)(=O)c1cnn(-c2ccc(F)cc2)c1)C(=O)N1C[C@]2(C[C@H]1C#N)C(=O)Nc1ccccc12 [Example 314] | 100 to 1000
CC(C)(C)C[C@H](NC(=O)[C@H](CC1CC1)NC(=O)c1cccc2cc(F)ccc12)C(=O)N1C[C@]2(C[C@H]1C#N)C(=O)Nc1ccccc12 [Example 315] | < 100
CC(C)(C)C[C@H](NC(=O)[C@H](CC1CC1)NC1CCCCC1)C(=O)N1C[C@]2(C[C@H]1C#N)C(=O)Nc1ccccc12 [Example 316] | 100 to 1000
CC(C)(C)C[C@H](NC(=O)[C@H](CC1CC1)NC(=O)C12CC(C)(C1)C2)C(=O)N1C[C@]2(C[C@H]1C#N)C(=O)Nc1ccccc12 [Example 317] | < 100

Structure (SMILES) | IC50 [nM]
CC(C)(C)C[C@H](NC(=O)[C@H](CC1CC1)NC(=O)C1CC2CCC1C2)C(=O)N1C[C@]2(C[C@H]1C#N)C(=O)Nc1ccccc12 (some centres unmarked) [Example 318] | < 100
CC(C)(C)C[C@H](NC(=O)[C@H](CC1CC1)NC(=O)C12CC3CC(CC(C3)C1)C2)C(=O)N1C[C@]2(C[C@H]1C#N)C(=O)Nc1ccccc12 [Example 319] | < 100
CC(C)(C)C[C@H](NC(=O)[C@H](CC1CC1)NC(=O)C1CCC1)C(=O)N1C[C@]2(C[C@H]1C#N)C(=O)Nc1ccccc12 [Example 320] | < 100
CC(C)(C)C[C@H](NC(=O)[C@H](CC1CC1)NC(=O)C1CC2(CCC2)C1)C(=O)N1C[C@]2(C[C@H]1C#N)C(=O)Nc1ccccc12 [Example 321] | < 100
CC(C)(C)C[C@H](NC(=O)[C@H](CC1CC1)NC(=O)C1CCC2(CC1)CC2)C(=O)N1C[C@]2(C[C@H]1C#N)C(=O)Nc1ccccc12 [Example 322] | < 100
CC(C)(C)C[C@H](NC(=O)[C@H](CC1CC1)NC(=O)c1cnn(C2CC2)c1)C(=O)N1C[C@]2(C[C@H]1C#N)C(=O)Nc1ccccc12 [Example 323] | < 100
CC(C)(C)C[C@H](NC(=O)[C@H](CC1CC1)NC(=O)c1cn(C2CC2)nn1)C(=O)N1C[C@]2(C[C@H]1C#N)C(=O)Nc1ccccc12 [Example 324] | < 100
CC(C)(C)C[C@H](NC(=O)[C@H](CC1CC1)NC(=O)c1c[nH]cn1)C(=O)N1C[C@]2(C[C@H]1C#N)C(=O)Nc1ccccc12 [Example 325] | 100 to 1000
CC(C)(C)C[C@H](NC(=O)[C@H](CC1CC1)NC(=O)c1ccc(F)c(F)c1)C(=O)N1C[C@]2(C[C@H]1C#N)C(=O)Nc1ccccc12 [Example 326] | < 100
CC(C)(C)C[C@H](NC(=O)[C@H](CC1CC1)NC(=O)C1CCCCC1)C(=O)N1C[C@]2(C[C@H]1C#N)C(=O)Nc1ccccc12 [Example 327] | < 100
CC(C)(C)C[C@H](NC(=O)[C@H](CC1CC1)NC(=O)OC1CC1)C(=O)N1C[C@]2(C[C@H]1C#N)C(=O)Nc1ccccc12 [Example 331] | 100 to 1000
C[C@H](Nc1ccc(F)cc1)C(=O)N[C@@H](CC(C)(C)C)C(=O)N1C[C@]2(C[C@H]1C#N)C(=O)Nc1ccccc12 [Example 336] | 100 to 1000
CC(C)[C@H](Nc1ccc(F)cc1)C(=O)N[C@@H](CC(C)(C)C)C(=O)N1C[C@]2(C[C@H]1C#N)C(=O)Nc1ccccc12 [Example 337] | 100 to 1000
CC(C)(C)C[C@H](NC(=O)[C@@H](Nc1ccc(F)cc1)C1CC1)C(=O)N1C[C@]2(C[C@H]1C#N)C(=O)Nc1ccccc12 [Example 338] | < 100
CC(C)(C)C[C@H](NC(=O)[C@H](Cc1ccccc1)Nc1ccc(F)cc1)C(=O)N1C[C@]2(C[C@H]1C#N)C(=O)Nc1ccccc12 [Example 339] | < 100
CC(C)(C)C[C@H](NC(=O)[C@@H](Nc1ccccc1)C1CC1)C(=O)N1C[C@]2(C[C@H]1C#N)C(=O)Nc1ccccc12 [Example 340] | < 100
CC(C)(C)C[C@H](NC(=O)[C@@H](Nc1ccc(F)cc1F)C1CC1)C(=O)N1C[C@]2(C[C@H]1C#N)C(=O)Nc1ccccc12 [Example 341] | < 100
CC(C)(C)C[C@H](NC(=O)[C@@H](Nc1ccc2ccccc2c1)C1CC1)C(=O)N1C[C@]2(C[C@H]1C#N)C(=O)Nc1ccccc12 [Example 342] | < 100
CC(C)(C)C[C@H](NC(=O)[C@@H](Nc1cnc2ccccc2c1)C1CC1)C(=O)N1C[C@]2(C[C@H]1C#N)C(=O)Nc1ccccc12 [Example 343] | < 100
CC(C)C(NC(=O)C(F)(F)F)C(=O)N1CC[C@H](c2ccccc2)[C@H]1C(=O)N1C[C@]2(C[C@H]1C#N)C(=O)Nc1ccccc12 (some centres unmarked) [Example 344] | < 100
CC(C)CC(NC(=O)C(F)(F)F)C(=O)N1CC[C@H](c2ccccc2)[C@H]1C(=O)N1C[C@]2(C[C@H]1C#N)C(=O)Nc1ccccc12 (some centres unmarked) [Example 345] | < 100
CC(C)CC(NC(=O)c1cnn(CC(F)(F)F)c1)C(=O)N1CC[C@H](c2ccccc2)[C@H]1C(=O)N1C[C@]2(C[C@H]1C#N)C(=O)Nc1ccccc12 (some centres unmarked) [Example 346] | < 100
CN(C(=O)[C@H](CC1CC1)NC(=O)C(F)(F)C(F)(F)F)[C@@H](CC1CC1)C(=O)N1C[C@]2(C[C@H]1C#N)C(=O)Nc1ccccc12 [Example 347] | < 100
C[C@H](NC(=O)C(F)(F)C(F)(F)F)C(=O)N(C)[C@@H](CC(C)(C)C)C(=O)N1C[C@]2(C[C@H]1C#N)C(=O)N(C)c1ccccc12 [Example 348] | < 100
CC(C)OC(=O)OCN1C(=O)[C@]2(C[C@@H](C#N)N(C(=O)[C@H](CC3CC3)N(C)C(=O)[C@H](C)NC(=O)C(F)(F)C(F)(F)F)C2)c2ccccc21 [Example 350] | 100 to 1000
C[C@H](NC(=O)C(F)(F)C(F)(F)F)C(=O)N(C)[C@@H](CC1CC1)C(=O)N1C[C@]2(C[C@H]1C#N)C(=O)N(COP(=O)(O)O)c1ccccc12 [Example 352] | < 100
